The values that follow come from US8426442B2, “Compounds” (Xention Ltd, priority 2009, dated 2013).

For one assay, the target named is hKv1.3 (Homo sapiens, UniProt P22001). In words: hKv1.3 % inhibition. In kind it is cell-based. Conditions: for inhibition at 1 µM: read-out: hKv1.3 % inh. 1 uM.
A further assay concerns the target hKv1.5 (Homo sapiens, UniProt P22460). In words: hKv1.5 % inhibition. Format: cell-based. Conditions: for inhibition at 0.3 µM: read-out: hKv1.5 % inh. 300 nM.

Chain of hKv1.3 (P22001 whole entry): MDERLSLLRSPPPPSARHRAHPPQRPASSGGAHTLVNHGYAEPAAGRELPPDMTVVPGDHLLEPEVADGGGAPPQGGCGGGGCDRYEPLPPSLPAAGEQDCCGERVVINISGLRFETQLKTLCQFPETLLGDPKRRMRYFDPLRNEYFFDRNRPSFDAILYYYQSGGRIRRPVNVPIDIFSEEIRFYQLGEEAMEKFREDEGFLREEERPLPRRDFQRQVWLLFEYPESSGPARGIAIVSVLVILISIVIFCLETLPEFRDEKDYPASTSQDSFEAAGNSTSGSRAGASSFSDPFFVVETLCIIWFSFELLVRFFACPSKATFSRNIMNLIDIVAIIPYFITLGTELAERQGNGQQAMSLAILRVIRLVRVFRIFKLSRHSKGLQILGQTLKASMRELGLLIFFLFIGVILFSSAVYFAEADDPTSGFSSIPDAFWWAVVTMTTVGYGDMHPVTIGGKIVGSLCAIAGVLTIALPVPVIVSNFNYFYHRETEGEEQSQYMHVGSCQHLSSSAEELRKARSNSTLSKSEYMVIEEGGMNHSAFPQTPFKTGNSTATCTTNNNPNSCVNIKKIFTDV
Chain of hKv1.5 (P22460 whole entry): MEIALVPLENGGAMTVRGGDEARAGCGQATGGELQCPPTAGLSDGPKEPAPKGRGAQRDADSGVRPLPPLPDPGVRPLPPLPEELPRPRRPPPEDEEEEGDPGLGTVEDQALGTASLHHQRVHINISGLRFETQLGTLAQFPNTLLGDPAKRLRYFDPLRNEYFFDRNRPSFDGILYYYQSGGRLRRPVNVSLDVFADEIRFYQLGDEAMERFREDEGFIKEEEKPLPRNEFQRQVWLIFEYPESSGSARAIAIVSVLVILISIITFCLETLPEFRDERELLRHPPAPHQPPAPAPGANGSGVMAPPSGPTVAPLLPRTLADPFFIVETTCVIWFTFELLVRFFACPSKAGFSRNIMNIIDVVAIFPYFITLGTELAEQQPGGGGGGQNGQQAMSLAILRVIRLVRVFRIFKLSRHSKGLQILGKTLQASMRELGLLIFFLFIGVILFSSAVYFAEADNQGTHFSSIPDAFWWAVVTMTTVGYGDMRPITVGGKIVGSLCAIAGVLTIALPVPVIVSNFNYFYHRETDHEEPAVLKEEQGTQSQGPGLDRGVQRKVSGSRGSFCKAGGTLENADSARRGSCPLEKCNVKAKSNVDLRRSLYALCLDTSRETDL

For the compound `COCCC(=O)N1CCc2ccc(N(Cc3ccc(Cl)cc3)S(=O)(=O)c3cn(C)cn3)cc21` [Example 11, 1-Methyl-1H-imidazole-4-sulfonic acid (4-chloro-benzyl)-[1-(3-methoxy-propionyl)-2,3-dihydro-1H-indol-6-yl]-amide], the inhibition at 1 µM at hKv1.3 was 65.6%. Moreover, the inhibition at 0.3 µM at hKv1.5 worked out at 20.9%.
In the same order, the values of `Cn1cnc(S(=O)(=O)N(Cc2ccc(Cl)cc2)c2ccc3c(c2)CCN3)c1` [Example 15, 1-Methyl-1H-imidazole-4-sulfonic acid (4-chloro-benzyl)-(2,3-dihydro-1H-indol-5-yl)-amide] are 61.1% and 20.5%.
The corresponding values for `Cn1cnc(S(=O)(=O)N(Cc2ccc(Cl)cc2)c2ccc3c(c2)CCN(C(=O)CC#N)C3)c1` [Example 20, 1-Methyl-1H-imidazole-4-sulfonic acid (4-chloro-benzyl)-[2-(2-cyano-acetyl)-1,2,3,4-tetrahydro-isoquinolin-6-yl]-amide] are 48.5% and 13.4%.
Consider “1-Methyl-1H-pyrazole-3-sulfonic acid benzyl-[2-(pyridine-2-carbonyl)-1,2,3,4-tetrahydro-isoquinolin-6-yl]-amide [Example 17]”, for which, on hKv1.3, the “hKv1.3 % inh. 1 uM” value stood at 54.8%. The “hKv1.5 % inh. 300 nM” value at hKv1.5 worked out at 36.7%.
As for `COCC(=O)N1CCc2cc(N(Cc3ccc(Cl)cc3)S(=O)(=O)c3cn(C)cn3)ccc2C1` [Example 14, 1-Methyl-1H-imidazole-4-sulfonic acid (4-chloro-benzyl)-[2-(2-methoxy-acetyl)-1,2,3,4-tetrahydro-isoquinolin-6-yl]-amide], at hKv1.3, the inhibition at 1 µM amounted to 62.7%. The inhibition at 0.3 µM on hKv1.5 turned out to be 32.1%.
In the same order, the values of `Cn1cnc(S(=O)(=O)N(Cc2ccc(Cl)cc2)c2ccc3c(c2)CCN(C(=O)CO)C3)c1` [Example 19, 1-Methyl-1H-imidazole-4-sulfonic acid (4-chloro-benzyl)-[2-(2-hydroxy-acetyl)-1,2,3,4-tetrahydro-isoquinolin-6-yl]-amide] are 49.5% and 16.2%.
In the same order, the values of `COCC(=O)N1CCc2ccc(N(Cc3ccc(Cl)cc3)S(=O)(=O)c3ccn(C)n3)cc21` [Example 1, 1-Methyl-1H-pyrazole-3-sulfonic acid (4-chloro-benzyl)-[1-(2-methoxy-acetyl)-2,3-dihydro-1H-indol-6-yl]-amide] are 100% and 92.1%.
The corresponding values for `CC(=O)N1CCc2cc(N(Cc3ccccc3)S(=O)(=O)c3ccn(C)n3)ccc2C1` [Example 10, 1-Methyl-1H-pyrazole-3-sulfonic acid (2-acetyl-1,2,3,4-tetrahydro-isoquinolin-6-yl)-benzyl-amide] are 67.2% and 37.5%.
As to `Cn1cnc(S(=O)(=O)N(Cc2ccc(Cl)cc2)c2ccc3c(c2)NCC3)c1` [Example 6, 1-Methyl-1H-imidazole-4-sulfonic acid (4-chloro-benzyl)-(2,3-dihydro-1H-indol-6-yl)-amide], the inhibition at 1 µM at hKv1.3 was determined as 85.4%. The inhibition at 0.3 µM on hKv1.5 was 37.1%.
“1-Methyl-1H-pyrazole-3-sulfonic acid (4-chloro-benzyl)-[1-(3-methoxy-propionyl)-2,3-dihydro-1H-indol-6-yl]-amide [Example 2]”: the “hKv1.3 % inh. 1 uM” value on hKv1.3 is reported as 99.1%.
In the case of `COCCC(=O)N1CCc2cc(N(Cc3ccc(Cl)cc3)S(=O)(=O)c3ccn(C)n3)ccc21` [Example 5, 1-Methyl-1H-pyrazole-3-sulfonic acid (4-chloro-benzyl)-[1-(3-methoxy-propionyl)-2,3-dihydro-1H-indol-5-yl]-amide], the inhibition at 1 µM at hKv1.3 was 90.7%. The inhibition at 0.3 µM on hKv1.5 amounted to 65.2%.
For the compound “1-Methyl-1H-pyrazole-3-sulfonic acid benzyl-[2-(3-methoxy-propionyl)-1,2,3,4-tetrahydro-isoquinolin-6-yl]-amide [Example 12]”, at hKv1.3, the “hKv1.3 % inh. 1 uM” value is on record as 64.3%. For the same compound, at hKv1.5, the “hKv1.5 % inh. 300 nM” value came to 41.7%.
`COCC(=O)N1CCc2cc(N(Cc3ccc(Cl)cc3)S(=O)(=O)c3ccn(C)n3)ccc21` [Example 13, 1-Methyl-1H-pyrazole-3-sulfonic acid (4-chloro-benzyl)-[1-(2-methoxy-acetyl)-2,3-dihydro-1H-indol-5-yl]-amide]: the inhibition at 1 µM at hKv1.3 is 64.2%. Also, the inhibition at 0.3 µM at hKv1.5 stood at 66.6%.
Regarding `Cn1ccc(S(=O)(=O)N(Cc2ccc(Cl)cc2)c2ccc3c(c2)CCN3C(=O)CC#N)n1` [Example 7, 1-Methyl-1H-pyrazole-3-sulfonic acid (4-chloro-benzyl)-[1-(2-cyano-acetyl)-2,3-dihydro-1H-indol-5-yl]-amide], on hKv1.3, the inhibition at 1 µM is 77.2%. The inhibition at 0.3 µM at hKv1.5 is 48.3%.
For the compound “1-Methyl-1H-pyrazole-3-sulfonic acid benzyl-[2-(2-cyano-acetyl)-1,2,3,4-tetrahydro-isoquinolin-6-yl]-amide [Example 9]”, the “hKv1.3 % inh. 1 uM” value on hKv1.3 turned out to be 71.6%. Also, the “hKv1.5 % inh. 300 nM” value at hKv1.5 is 27.6%.
`CC(=O)N1CCc2cc(N(Cc3ccc(Cl)cc3)S(=O)(=O)c3cn(C)cn3)ccc2C1` [Example 8, 1-Methyl-1H-imidazole-4-sulfonic acid(2-acetyl-1,2,3,4-tetrahydro-isoquinolin-6-yl)-(4-chlorobenzyl)-amide]: the “hKv1.3 % inh. 1 uM” value on hKv1.3 worked out at 73.3%. Moreover, at hKv1.5, the “hKv1.5 % inh. 300 nM” value worked out at 25.2%.
In the same order, the values of “1-Methyl-1H-pyrazole-3-sulfonic acid benzyl-[2-(2-methoxy-acetyl)-1,2,3,4-tetrahydro-isoquinolin-6-yl]-amide [Example 18]” are 51.1% and 34.6%.
Consider `CC(=O)N1CCc2ccc(N(Cc3ccc(Cl)cc3)S(=O)(=O)c3ccn(C)n3)cc21` [Example 3, 1-Methyl-1H-pyrazole-3-sulfonic acid (1-acetyl-2,3-dihydro-1H-indol-6-yl)-(4-chloro-benzyl)-amide], for which the inhibition at 1 µM at hKv1.3 was found to be 98%. Also, on hKv1.5, the inhibition at 0.3 µM is 89.5%.
The corresponding values for `COCCC(=O)N1CCc2cc(N(Cc3ccc(Cl)cc3)S(=O)(=O)c3cn(C)cn3)ccc2C1` [Example 16, 1-Methyl-1H-imidazole-4-sulfonic acid (4-chloro-benzyl)-[2-(3-methoxy-propionyl)-1,2,3,4-tetrahydro-isoquinolin-6-yl]-amide] are 57.5% and 32.2%.
In the same order, the values of `CC(=O)N1CCc2cc(N(Cc3ccc(Cl)cc3)S(=O)(=O)c3ccn(C)n3)ccc21` [Example 4, 1-Methyl-1H-pyrazole-3-sulfonic acid (1-acetyl-2,3-dihydro-1H-indol-5-yl)-(4-chloro-benzyl)-amide] are 91.3% and 86.1%.
